We go through eleven molecules from patent publication US20250154109A1, “SODIUM CHANNEL BLOCKING COMPOUNDS, DERIVATIVES THEREOF, AND METHODS OF THEIR USE” (LATIGO BIOTHERAPEUTICS, INC, priority 2022, published 2025).

Some results are limits rather than exact numbers.

The test system of one series is human plasma protein. Kind of series: Human plasma protein binding by equilibrium dialysis. Particulars: for Human Plasma, Unbound %: equilibrium dialysis; for Fold increase vs Comparatror (human plasma unbound): ratio of unbound % sulfoximine / comparator sulfonamide. The series is classed as in vitro ADME. From the text:
(§1) Table 3 presents the human and rat plasma protein binding data (% unbound) for the compounds of Table 2.
(§2) Comparator compounds A, B, C have been previously reported as inhibitors of Na, 1.8 in WO2020/092667. Comparator D, not previously reported, is offered as an additional sulfonamido example.

The next series deals with rat plasma protein. Kind of series: Rat plasma protein binding by equilibrium dialysis. The format is in vitro ADME. Particulars: for Rat Plasma, Unbound %: equilibrium dialysis; for Fold increase vs Comparator (rat plasma unbound): ratio of unbound % sulfoximine / comparator sulfonamide.
From the text: as §1, §2

Series [1] deals with T1, human Nav1.8 (Homo sapiens, UniProt Q9Y5Y9). Kind of series: SyncroPatch384PE assay (automated patch clamp). Particulars: human Nav1.8/b3 CHO cells. The series is classed as cell-based.
Series [2] has as its target T1, human Nav1.8. Kind of series: Sophion Qpatch II assay (automated patch clamp). The format is cell-based. Particulars: resting state block (TP1 measurement), human Nav1.8 HEK293 cells, read-out: P1 IC50. Here is the method: Compounds were tested on recombinant human Nav1.8/01 stably transfected HEK293 (Eurofins, CYL3025, St. Charles, MO) cells using the Qpatch II system (Sophion Bioscience A/S, Ballerup—Denmark), an automated patch clamp device. Cells were cultured at 37° C./5% CO2 in DMEM/F-12 supplemented with 10% fetal bovine serum, lx Non-Essential Amino Acids, and selection antibiotics (0.625 μg/mL Puromycin, 400 μg/mL Geneticin, and 100 μg/mL Hygromycin). One or two days prior to recording, cells were moved to a lower temperature 30° C./5% CO2 incubator to increase surface expression of the channels. On the day of the recordings, cells in culture dishes were washed twice with Ca^2+—Mg^2+ free DPBS and treated with Detachin (Genlantis, San Diego) for 3 minutes and then resuspended in Serum Free Medium (EX-CELL® ACF CHO Medium for Cell Culture (Sigma-Aldrich) supplemented with 0.04 mg/mL soybean trypsin Inhibitor and 25 mM HEPES (all components supplied by Sigma-Aldrich, St. Louis, MO) and allowed to recover for a minimum of 20 minutes in the onboard Qstirrer. All experiments were performed at ambient temperature. Intracellular solution contained (mM): CsCl, 50; CsF, 90; MgCl2, 2; EGTA, 5; HEPES, 10; pH adjusted to 7.2 with CsOH. Extracellular solution contained (mM): NaCl, 137; KCl, 4; CaCl2), 3.8; MgCl2, 1; HEPES, 10; Glucose, 10; pH adjusted to 7.4 with NaOH. 500 nM tetrodotoxin (TTX) was added to the extracellular solution to block endogenous TTX-sensitive sodium currents.
Compounds were tested in an interleaved manner across two cohorts of wells to develop an aggregate 8-point concentration response curve. Final concentrations include 0.5% DMSO and 0.03% pluronic Acid. The concentration range spanned a range from 0.01-300 nM. Compounds were diluted 1:10 with extracellular solution within their respective cohort. (R)-2-(4-fluoro-2-methylphenoxy)-N-(3-(S-methylsulfonimidoyl)phenyl)-5-(trifluoromethyl)nicotinamide served as a positive control while DMSO (0.5% by volume) served as a vehicle control to ascertain assay performance.
Whole cell patch clamp recordings were conducted according to Sophion standard procedure for Qpatch II®. Cells were held at a holding potential of −120 mV. A depolarizing step to 10 mV for 30 ms was applied (TP1 measurement), followed by a hyperpolarization step to −100 mV for 20 ms. Due to instability observed at long depolarized potentials, there were no second TP2 measurements attempted. Inter-sweep interval was 15 sec. Following establishment of the whole-cell configuration in extracellular solution, cells were washed twice in extracellular solution containing 0.5% DMSO and 0.03% pluronic acid to stabilize the baseline current. Compounds were then applied by the Qpatch II system into each well in an ascending manner within cohort and the current was recorded for five minutes for each concentration. Percent of current remaining was determined by taking the average of the last 5 sweeps within each concentration and normalizing to the latest pre-compound saline period. The potency of the compounds was assessed on resting state block (TP1 measurement) only to obtain IC50 values. Wells whose initial sodium current magnitude were below 2 nA or whole cell resistance fell below 100 MQ were excluded from analysis.
Examples 220 to 224, Examples 237 to 257 and Example 259 are assayed using Sophion Qpatch II assay described above.

Where [3] appears, read: inactivated state block (P2 measurement), read-out: P2 IC50.
The mark [4] stands for this setting: resting state block (P1 measurement), read-out: P1 IC50.

T1 sequence (Q9Y5Y9 whole entry): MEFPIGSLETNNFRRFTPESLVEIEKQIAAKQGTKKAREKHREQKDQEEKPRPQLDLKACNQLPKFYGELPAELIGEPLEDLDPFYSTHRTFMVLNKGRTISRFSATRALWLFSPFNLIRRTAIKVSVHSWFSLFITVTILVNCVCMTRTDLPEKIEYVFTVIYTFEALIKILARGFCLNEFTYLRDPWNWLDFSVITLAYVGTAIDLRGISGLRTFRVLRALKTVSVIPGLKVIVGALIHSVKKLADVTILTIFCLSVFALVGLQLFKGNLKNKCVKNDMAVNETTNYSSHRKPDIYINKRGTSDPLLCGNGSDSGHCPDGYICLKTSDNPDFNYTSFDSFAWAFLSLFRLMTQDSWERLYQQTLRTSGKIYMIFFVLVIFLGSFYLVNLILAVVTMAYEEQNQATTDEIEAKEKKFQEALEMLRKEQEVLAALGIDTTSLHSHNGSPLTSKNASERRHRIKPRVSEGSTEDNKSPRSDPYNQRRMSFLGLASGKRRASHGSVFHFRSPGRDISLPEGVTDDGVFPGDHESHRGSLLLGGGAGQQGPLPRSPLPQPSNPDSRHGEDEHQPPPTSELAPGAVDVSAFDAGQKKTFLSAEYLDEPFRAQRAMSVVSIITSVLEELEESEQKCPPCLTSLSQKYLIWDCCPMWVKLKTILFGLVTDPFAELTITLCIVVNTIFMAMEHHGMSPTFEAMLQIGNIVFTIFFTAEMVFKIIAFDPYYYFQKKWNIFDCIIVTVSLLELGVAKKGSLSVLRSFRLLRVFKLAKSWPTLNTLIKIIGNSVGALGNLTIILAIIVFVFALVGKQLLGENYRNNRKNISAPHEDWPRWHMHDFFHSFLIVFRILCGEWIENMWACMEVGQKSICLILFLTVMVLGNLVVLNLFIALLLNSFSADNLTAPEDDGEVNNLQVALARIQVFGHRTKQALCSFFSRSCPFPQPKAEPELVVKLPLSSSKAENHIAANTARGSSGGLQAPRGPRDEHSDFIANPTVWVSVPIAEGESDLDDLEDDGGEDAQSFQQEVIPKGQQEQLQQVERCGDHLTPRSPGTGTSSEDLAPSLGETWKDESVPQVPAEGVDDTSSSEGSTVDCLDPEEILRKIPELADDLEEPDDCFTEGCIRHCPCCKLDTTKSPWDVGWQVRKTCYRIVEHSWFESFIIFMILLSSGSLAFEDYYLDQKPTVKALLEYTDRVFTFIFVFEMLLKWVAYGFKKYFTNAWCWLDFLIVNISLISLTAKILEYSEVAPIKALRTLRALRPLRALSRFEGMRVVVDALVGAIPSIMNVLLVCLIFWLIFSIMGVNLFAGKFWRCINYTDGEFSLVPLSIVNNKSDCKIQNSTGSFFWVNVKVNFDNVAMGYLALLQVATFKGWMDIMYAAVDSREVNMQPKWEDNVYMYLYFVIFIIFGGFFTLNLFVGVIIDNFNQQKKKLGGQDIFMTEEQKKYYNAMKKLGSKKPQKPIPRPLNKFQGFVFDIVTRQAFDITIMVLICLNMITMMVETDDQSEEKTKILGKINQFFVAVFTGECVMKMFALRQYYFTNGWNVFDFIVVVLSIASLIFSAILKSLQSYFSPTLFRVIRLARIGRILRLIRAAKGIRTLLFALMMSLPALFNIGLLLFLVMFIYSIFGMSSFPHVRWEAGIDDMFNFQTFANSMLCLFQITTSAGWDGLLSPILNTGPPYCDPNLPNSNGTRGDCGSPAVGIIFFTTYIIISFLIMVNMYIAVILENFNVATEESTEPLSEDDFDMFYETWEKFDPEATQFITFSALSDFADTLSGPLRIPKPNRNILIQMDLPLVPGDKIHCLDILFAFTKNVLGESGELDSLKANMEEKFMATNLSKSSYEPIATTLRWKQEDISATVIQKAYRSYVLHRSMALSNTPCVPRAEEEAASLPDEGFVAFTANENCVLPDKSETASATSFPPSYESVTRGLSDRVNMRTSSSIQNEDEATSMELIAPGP

`Cc1nc(N2CCCC(F)(F)CC2)c(C(=O)Nc2ccnc(S(N)(=O)=O)c2)cc1C(F)(F)F` [Compound A, reference compound]: the “Human Plasma, Unbound %” value with human plasma protein worked out at 0.24%. Moreover, the “Rat Plasma, Unbound %” value with rat plasma protein came out at 0.52%.

For `Cc1nc(N2CCCC(F)(F)CC2)c(C(=O)Nc2cccc([S@](C)(=N)=O)c2)cc1C(F)(F)F` [Example 4, (R)-2-(4,4-difluoroazepan-1-yl)-6-methyl-N-(3-(S-methylsulfonimidoyl)phenyl)-5-(trifluoromethyl)nicotinamide], in the series on human plasma protein, the “Human Plasma, Unbound %” value stood at 0.9% and the “Fold increase vs Comparatror (human plasma unbound)” value was 2.9×. In addition, the IC50 on human Nav1.8 [1] (setting [3]) is ≤ 5 nM. Further, the IC50 on human Nav1.8 [1] (setting [4]) was ≤ 5 nM. In the series on rat plasma protein, the “Rat Plasma, Unbound %” value stood at 1.9% and the “Fold increase vs Comparator (rat plasma unbound)” value is 6.1×.

`Cc1nc(N2CCCC(F)(F)CC2)c(C(=O)Nc2cccc(S(N)(=O)=O)c2)cc1C(F)(F)F` [Compound D, reference compound]: in the series on human plasma protein, the “Human Plasma, Unbound %” value turned out to be 0.31%. Further, the “Rat Plasma, Unbound %” value in the series with rat plasma protein was found to be 0.31%.

Regarding `CS(=N)(=O)c1cccc(NC(=O)c2cc(C(F)(F)F)nnc2N2CCCC(F)(F)CC2)c1` (stereo not drawn) [Compound E], in the series with rat plasma protein, the “Rat Plasma, Unbound %” value stood at 37.8% and the “Fold increase vs Comparator (rat plasma unbound)” value was 2.4×.

In the case of `Cc1c(C(F)(F)F)cnc(N2CCC(F)(F)CC2)c1C(=O)Nc1cccc([S@](C)(=N)=O)c1` [Example 241, (R)-2-(4,4-difluoropiperidin-1-yl)-4-methyl-N-(3-(S-methylsulfonimidoyl)phenyl)-5-(trifluoromethyl)nicotinamide], the IC50 on human Nav1.8 [2] fell in the range of 5 to 50 nM.

Consider `Cc1nc(N2CCCC(F)(F)CC2)c(C(=O)Nc2ccnc(S(C)(=N)=O)c2)cc1C(F)(F)F` (stereo not drawn) [Example 101, 2-(4,4-difluoroazepan-1-yl)-6-methyl-N-(2-(S-methylsulfonimidoyl)pyridin-4-yl)-5-(trifluoromethyl)nicotinamide], for which, in the series with human plasma protein, the “Human Plasma, Unbound %” value was found to be 1.8% and the “Fold increase vs Comparatror (human plasma unbound)” value came to 7.5×. Besides, at human Nav1.8 [1] (setting [3]), the IC50 is ≤ 5 nM. Besides, on human Nav1.8 [1] (setting [4]), the IC50 was ≤ 5 nM. Also, in the series with rat plasma protein, the “Rat Plasma, Unbound %” value was 3.55% and the “Fold increase vs Comparator (rat plasma unbound)” value is on record as 6.8×.

Regarding `Cc1c(C(F)(F)F)cnc(N2CCO[C@H](C(F)(F)F)C2)c1C(=O)Nc1ccnc([S@](C)(=N)=O)c1` [Example 237, 4-methyl-N-(2-((R)—S-methylsulfonimidoyl)pyridin-4-yl)-5-(trifluoromethyl)-2-((S)-2-(trifluoromethyl)morpholino)nicotinamide], the IC50 on human Nav1.8 [2] lay in the range of 50 to 100 nM.

For `C[S@@](=N)(=O)c1cc(NC(=O)c2cc(Cl)c(C(F)(F)F)cc2N2CCC(C(F)(F)F)CC2)ccc1F` [Example 245, (R)-5-chloro-N-(4-fluoro-3-(S-methylsulfonimidoyl)phenyl)-4-(trifluoromethyl)-2-(4-(trifluoromethyl)piperidin-1-yl)benzamide], the IC50 on human Nav1.8 [2] lay within 5 to 50 nM.

Turning to `NS(=O)(=O)c1cccc(NC(=O)c2cc(C(F)(F)F)nnc2N2CCCC(F)(F)CC2)c1` [Compound B, reference compound], in the series on human plasma protein, the “Human Plasma, Unbound %” value came to 17.4%. Moreover, the “Rat Plasma, Unbound %” value in the series with rat plasma protein came to 15.8%.

On to `Cc1nc(N2CCCC(F)(F)CC2)c(C(=O)Nc2cccc(S(C)(=N)=O)c2)cc1Cl` (stereo in doubt) [Example 17, (S)-5-Chloro-2-(4,4-difluoroazepan-1-yl)-6-methyl-N-(3-(S-methylsulfonimidoyl)phenyl)nicotinamide], for which, in the series with human plasma protein, the “Human Plasma, Unbound %” value is on record as 1.7% and the “Fold increase vs Comparatror (human plasma unbound)” value came to 3.2×. In addition, the IC50 at human Nav1.8 [1] (setting [4]) was ≤ 5 nM. In the series with rat plasma protein, the “Rat Plasma, Unbound %” value turned out to be 3.0% and the “Fold increase vs Comparator (rat plasma unbound)” value came out at 1.9×.

Consider `Cc1nc(N2CCCC(F)(F)CC2)c(C(=O)Nc2ccnc(S(N)(=O)=O)c2)cc1Cl` [Compound C, reference compound], for which the “Human Plasma, Unbound %” value in the series with human plasma protein is reported as 0.53%. In addition, the “Rat Plasma, Unbound %” value in the series on rat plasma protein stood at 1.62%.
